Eight compounds from ChEMBL document CHEMBL1155048, “Effect of novel N-cyano-tetrahydro-pyridazine compounds, a class of cathepsin K inhibitors, on the bone resorptive activity of mature osteoclasts” (Bioorg Med Chem Lett, 2008) can be followed below.

Each structure is given as a SMILES string.

The target of test [1] is Procathepsin L (Homo sapiens, UniProt P07711). The experiment in a line: Inhibition of human recombinant cathepsin L.
Test [2] has as its target Cathepsin B (Homo sapiens, UniProt P07858). Kind of test: Inhibition of human recombinant cathepsin B.
Test [3] has as its target T1, Cathepsin K (Homo sapiens, UniProt P43235).
T1 sequence (P43235 whole entry): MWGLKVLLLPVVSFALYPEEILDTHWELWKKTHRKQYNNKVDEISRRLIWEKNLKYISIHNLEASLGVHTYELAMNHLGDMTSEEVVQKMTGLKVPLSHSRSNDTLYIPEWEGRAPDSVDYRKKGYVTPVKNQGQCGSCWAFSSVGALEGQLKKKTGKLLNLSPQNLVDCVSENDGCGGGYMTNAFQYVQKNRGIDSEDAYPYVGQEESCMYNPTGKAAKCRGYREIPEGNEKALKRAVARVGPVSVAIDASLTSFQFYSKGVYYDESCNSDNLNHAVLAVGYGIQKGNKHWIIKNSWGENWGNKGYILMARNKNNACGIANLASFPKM
The experiment in a line: Inhibition of human recombinant cathepsin K.

Test [4] concerns Macrophage. Kind of test: Inhibition of RANKL-induced bone resorption of multinucleated osteoclasts from BALB/c mouse bone marrow-derived macrophages by pit formation assay. The test is classed as functional, cell-based.
Test [5] concerns RAW264.7. The experiment in a line: Inhibition of RANKL-induced bone resorption of multinucleated osteoclasts from mouse RAW264.7 cells by pit formation assay. The test is classed as functional, cell-based.

Chain of Procathepsin L (P07711 whole entry): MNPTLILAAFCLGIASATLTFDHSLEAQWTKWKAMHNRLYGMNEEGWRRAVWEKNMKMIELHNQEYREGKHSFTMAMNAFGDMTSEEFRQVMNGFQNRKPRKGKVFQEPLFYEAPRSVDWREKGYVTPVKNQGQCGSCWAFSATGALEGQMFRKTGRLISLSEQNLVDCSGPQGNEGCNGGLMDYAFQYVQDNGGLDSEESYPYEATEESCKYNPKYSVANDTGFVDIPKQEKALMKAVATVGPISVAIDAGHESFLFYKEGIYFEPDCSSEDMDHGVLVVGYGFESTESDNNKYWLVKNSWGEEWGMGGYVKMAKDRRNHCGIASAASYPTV

As for `CC(C)C(Nc1cccc(C#N)c1)C(=O)N1CCCCN1C#N` (stereo unspecified), the figures for the IC50 in test [1], in test [2] and in test [3] were 730 nM, 40 nM and 4 nM, respectively.

With `Cc1cccc(NC(C(=O)N2CCCCN2C#N)C(C)C)c1` (stereo unspecified), the IC50 in test [1] was found to be 355 nM; in test [2] it was 32 nM; in test [3], 6 nM.

Consider `CC(C)C(NC(=O)OCc1ccccc1)C(=O)N1CCCCN1C#N` (stereo unspecified), for which the Activity result in test [4] and in test [5] was “Dose-dependent effect” each time. Further, the IC50 in test [1] was determined as 145 nM; in test [2], 11 nM; in test [3], 1 nM.

With `CC(C)C(Nc1cccc(Cl)c1)C(=O)N1CCCCN1C#N` (stereo unspecified), the IC50 in test [1] was found to be 240 nM; in test [2], 32 nM; in test [3], 11 nM.

Turning to `CC(C)C(Nc1ccccc1)C(=O)N1CCCCN1C#N` (stereo unspecified), the 50% inhibitory concentration (IC50) stood at 625 nM in test [1], 53 nM in test [2] and 25 nM in test [3].

`CC(C)C(Nc1cccc(C(F)(F)F)c1)C(=O)N1CCCCN1C#N` (stereo unspecified): the concentration for half-maximal inhibition (IC50) came to 48 nM in test [1], 23 nM in test [2] and 23 nM in test [3].

Turning to `CC(C)C(NC(=O)OC(C)(C)C)C(=O)N1CCCCN1C#N` (stereo unspecified), the IC50 in test [1] stood at 130 nM; in test [2], 38 nM; in test [3], 55 nM.

As to `CC(C)C(Nc1ccc(Cl)cc1)C(=O)N1CCCCN1C#N` (stereo unspecified), the concentration for half-maximal inhibition (IC50) in test [1] worked out at 610 nM; in test [2] it was 110 nM; in test [3], 24 nM.
